In ChEMBL document CHEMBL1201862, “PubChem BioAssay data set” (2004):
The source made the active and inactive calls.

Assays:
[1] = target: T1, Replicative DNA helicase DnaB (Mycobacterium tuberculosis, UniProt P9WMR3); assay: DnaB intein splicing inhibitors, dose response, biochemical, cell-free fluorescence (AID 449749); type: functional
T1 sequence (P9WMR3 whole entry): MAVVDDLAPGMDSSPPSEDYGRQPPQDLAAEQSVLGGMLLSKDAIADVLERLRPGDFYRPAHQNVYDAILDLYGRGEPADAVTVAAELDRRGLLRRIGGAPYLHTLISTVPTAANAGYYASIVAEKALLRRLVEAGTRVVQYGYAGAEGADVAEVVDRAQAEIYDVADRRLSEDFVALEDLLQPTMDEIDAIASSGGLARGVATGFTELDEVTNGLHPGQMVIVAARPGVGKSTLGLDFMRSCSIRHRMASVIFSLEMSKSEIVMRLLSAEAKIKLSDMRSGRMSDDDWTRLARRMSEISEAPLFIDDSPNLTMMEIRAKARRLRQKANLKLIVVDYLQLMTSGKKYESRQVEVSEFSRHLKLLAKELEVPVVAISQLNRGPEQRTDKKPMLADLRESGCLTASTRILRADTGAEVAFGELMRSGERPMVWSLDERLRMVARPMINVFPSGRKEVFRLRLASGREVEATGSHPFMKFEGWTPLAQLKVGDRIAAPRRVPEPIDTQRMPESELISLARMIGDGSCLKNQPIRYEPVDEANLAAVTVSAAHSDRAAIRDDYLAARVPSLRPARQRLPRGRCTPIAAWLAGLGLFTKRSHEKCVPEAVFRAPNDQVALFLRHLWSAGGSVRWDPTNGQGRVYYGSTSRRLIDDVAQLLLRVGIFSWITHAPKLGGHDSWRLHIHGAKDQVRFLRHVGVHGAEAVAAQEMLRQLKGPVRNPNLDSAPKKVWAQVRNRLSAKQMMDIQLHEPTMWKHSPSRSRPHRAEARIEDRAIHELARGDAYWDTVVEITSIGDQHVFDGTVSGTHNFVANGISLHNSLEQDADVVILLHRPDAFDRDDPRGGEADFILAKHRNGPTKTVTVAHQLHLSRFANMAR

Protein RecA = target: T2, Protein RecA (Mycobacterium tuberculosis, UniProt P9WHJ3); assay: Fluorescence Cell-Free Homogeneous Dose Retest to Identify Inhibitors of RecA-Intein Splicing Activity. [Related pubchem assays (depositor defined):AID2097, AID2223, AID489010, AID492950]; type: functional
T2 sequence (P9WHJ3 whole entry): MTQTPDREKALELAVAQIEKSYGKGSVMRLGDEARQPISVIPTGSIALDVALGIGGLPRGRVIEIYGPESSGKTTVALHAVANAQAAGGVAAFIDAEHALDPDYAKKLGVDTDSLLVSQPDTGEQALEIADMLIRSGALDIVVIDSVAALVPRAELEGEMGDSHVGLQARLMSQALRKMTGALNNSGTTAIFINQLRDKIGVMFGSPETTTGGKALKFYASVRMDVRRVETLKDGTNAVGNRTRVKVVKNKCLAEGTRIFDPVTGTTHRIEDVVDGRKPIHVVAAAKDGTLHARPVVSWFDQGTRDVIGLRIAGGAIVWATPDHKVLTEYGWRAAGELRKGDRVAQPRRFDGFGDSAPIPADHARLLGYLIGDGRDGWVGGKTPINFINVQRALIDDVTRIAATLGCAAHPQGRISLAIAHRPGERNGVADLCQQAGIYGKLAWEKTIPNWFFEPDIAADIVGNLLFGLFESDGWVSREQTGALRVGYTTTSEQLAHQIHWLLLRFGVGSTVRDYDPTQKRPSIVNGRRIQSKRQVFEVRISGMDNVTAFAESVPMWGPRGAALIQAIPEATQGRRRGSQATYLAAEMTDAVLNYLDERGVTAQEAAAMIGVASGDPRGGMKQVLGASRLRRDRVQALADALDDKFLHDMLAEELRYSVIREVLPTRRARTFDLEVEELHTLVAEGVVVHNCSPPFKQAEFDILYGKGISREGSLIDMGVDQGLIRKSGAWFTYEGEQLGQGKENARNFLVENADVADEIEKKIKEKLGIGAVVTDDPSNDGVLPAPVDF

[2] = target: T3, Rac GTPase-activating protein 1 (Homo sapiens, UniProt Q9H0H5); assay: MgcRacGAP GTPase-activating activity inhibitors, confirmation, biochemical, ADP Hunter fluorescence, primary and confirmatory (AID 624330); type: functional
T3 sequence (Q9H0H5 whole entry): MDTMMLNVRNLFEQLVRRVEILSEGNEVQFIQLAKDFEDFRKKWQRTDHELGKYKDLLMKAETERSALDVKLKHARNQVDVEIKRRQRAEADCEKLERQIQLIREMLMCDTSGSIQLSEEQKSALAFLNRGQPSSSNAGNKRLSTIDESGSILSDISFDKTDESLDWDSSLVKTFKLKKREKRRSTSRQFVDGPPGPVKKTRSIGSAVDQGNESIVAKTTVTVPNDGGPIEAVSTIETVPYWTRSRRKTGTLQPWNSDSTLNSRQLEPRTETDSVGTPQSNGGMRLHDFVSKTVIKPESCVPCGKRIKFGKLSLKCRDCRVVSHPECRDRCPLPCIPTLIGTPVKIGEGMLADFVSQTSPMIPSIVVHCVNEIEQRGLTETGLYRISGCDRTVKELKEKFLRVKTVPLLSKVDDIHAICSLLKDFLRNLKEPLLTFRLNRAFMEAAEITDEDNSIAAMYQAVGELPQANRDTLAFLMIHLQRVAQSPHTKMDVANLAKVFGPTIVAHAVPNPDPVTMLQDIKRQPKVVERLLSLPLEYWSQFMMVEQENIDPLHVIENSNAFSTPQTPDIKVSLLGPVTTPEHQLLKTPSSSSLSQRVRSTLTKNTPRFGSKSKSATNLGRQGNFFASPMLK

[3] = target: T4, Calpain-2 catalytic subunit (Sus scrofa, UniProt P43367); assay: pig calpain II inhibitor potency, dose response, biochemical, fluorogenic peptide substrate (AID 1420); type: functional
T4 sequence (P43367 whole entry): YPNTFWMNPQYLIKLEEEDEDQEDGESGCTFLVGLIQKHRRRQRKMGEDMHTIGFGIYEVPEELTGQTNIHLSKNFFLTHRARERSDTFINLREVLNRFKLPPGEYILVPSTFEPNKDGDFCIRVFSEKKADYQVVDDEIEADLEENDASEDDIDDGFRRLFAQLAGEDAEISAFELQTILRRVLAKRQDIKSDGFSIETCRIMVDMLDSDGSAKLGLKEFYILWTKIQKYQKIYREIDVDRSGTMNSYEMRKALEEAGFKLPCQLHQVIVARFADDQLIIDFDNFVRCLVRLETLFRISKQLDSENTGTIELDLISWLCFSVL

[4] = test system: Streptococcus sp. 'group A'; assay: growth inhibition of control SK(-) GAS strain, dose response, counter-screen for streptokinase expression inhibitor project, luminescence, kanamycin, BacTiterGlo, confirmation (AID 1900); type: functional, organism-based
Streptokinase A = target: T5, Streptokinase A (Streptococcus pyogenes serotype M1, UniProt P10520); assay: S. pyogenes streptokinase expression inhibitors, potency, dose response, plasminogen activation absorbance, OD405 (AID 1914); type: functional, Streptococcus pyogenes M1 GAS;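 note: secreted streptokinase activity via plasminogen activation per viability signal from cell pellet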
T5 sequence (P10520 whole entry): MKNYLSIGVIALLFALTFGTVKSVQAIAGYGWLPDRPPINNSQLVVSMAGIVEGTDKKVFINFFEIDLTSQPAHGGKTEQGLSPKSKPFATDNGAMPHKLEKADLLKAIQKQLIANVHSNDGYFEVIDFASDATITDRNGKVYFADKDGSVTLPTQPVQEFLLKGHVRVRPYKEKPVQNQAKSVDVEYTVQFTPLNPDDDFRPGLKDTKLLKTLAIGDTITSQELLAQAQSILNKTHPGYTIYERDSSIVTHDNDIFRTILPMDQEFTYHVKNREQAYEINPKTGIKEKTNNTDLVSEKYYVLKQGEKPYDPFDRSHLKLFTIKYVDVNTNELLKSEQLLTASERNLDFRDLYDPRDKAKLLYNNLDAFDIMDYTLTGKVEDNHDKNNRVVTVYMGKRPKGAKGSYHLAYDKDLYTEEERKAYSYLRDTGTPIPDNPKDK

Streptococcus = assay: Group A Streptococcus viability loss, dose response, counter-screen for streptokinase expression inhibitor project, luminescence, BacTiterGlo (AID 1915); type: functional, organism-based;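 note: potency for reduction of bacterial viability or growth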
INS1 = assay: beta cell apoptosis inhibitors, cytokine rescue, dose response, luminescence, retest (AID 449756); type: functional, cell-based; details: Rattus norvegicus;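 note: cell death triggered by IL-1 beta plus TNF-alpha plus IFN-gamma mixture; protective hits raise ATP signal compared with cytokine alone wells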
Paired box protein Pax-8 = Paired box protein Pax-8 (Homo sapiens, UniProt Q06710); assay: inhibitors of PAX8-driven TPO luciferase reporter, dose response, RMG-I cells, cherry-pick (AID 687027); type: functional, cell-based;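 note: luciferase reporter driven by Pax8 target thyroperoxidase promoter measured by SteadyGlo luminescence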
Sequence of Paired box protein Pax-8 (Q06710 whole entry): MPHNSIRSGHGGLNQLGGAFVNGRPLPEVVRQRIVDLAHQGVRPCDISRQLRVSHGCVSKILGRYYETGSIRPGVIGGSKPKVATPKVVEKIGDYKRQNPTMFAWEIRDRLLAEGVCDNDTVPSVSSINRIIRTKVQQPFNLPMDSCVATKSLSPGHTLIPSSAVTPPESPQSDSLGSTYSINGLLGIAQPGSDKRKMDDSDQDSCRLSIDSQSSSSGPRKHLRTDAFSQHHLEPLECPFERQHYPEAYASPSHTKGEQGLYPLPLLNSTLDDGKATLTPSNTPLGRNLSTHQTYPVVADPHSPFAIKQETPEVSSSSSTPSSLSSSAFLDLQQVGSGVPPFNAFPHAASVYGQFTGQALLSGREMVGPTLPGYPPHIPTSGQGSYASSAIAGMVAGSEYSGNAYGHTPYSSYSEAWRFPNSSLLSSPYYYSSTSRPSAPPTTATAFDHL

## O=C1CC(c2cccnc2)=NN1c1ccccc1
[1]
  AC50: 3.7 µM (active)
Protein RecA
  EC50: 13.9 µM (active)

## Brc1ccc(OCCCN2CCOCC2)cc1
[2]
  IC50: 123 µM (active)

## Cc1ccc(NC(=O)NN(C)c2c(Cl)c(Cl)nn2C)cc1
[3]
  IC50: > 50 µM (not active)

## CCCCn1c(=O)c(C(=O)NCc2ccccc2Cl)c(O)c2ccccc21
[4]
  EC50: 54.8 µM (active)
Streptokinase A
  EC50: 5.97 µM (inconclusive)
Streptococcus
  EC50: > 150 µM (not active)

## COc1ccc(CN2CCN(CCSc3ccc(C)cc3)CC2)c(OC)c1OC
INS1
  AC50: > 260 µM (inactive)
[2]
  IC50: 80 µM (active)

## COc1ccc(C2c3ccc(O)cc3Oc3ncn4nc(-c5ccncc5)nc4c32)cc1OC (stereo not drawn)
[4]
  EC50: 4.67 µM (active)
Streptokinase A
  EC50: > 150 µM (not active)
Streptococcus
  EC50: 27.9 µM (active)

## Cn1c(N)c(C(=O)COC(=O)C23CC4CC(CC(C4)C2)C3)c(=O)n(C)c1=O
[3]
  IC50: 2.26 µM (active)

## CCC(C)(C)NC(=O)c1ccc(S(=O)(=O)N2CCCCCC2)cc1
[3]
  IC50: 22.9 µM (not active)

## CCOc1cc(C(c2c(C)n[nH]c2O)c2c(C)n[nH]c2O)ccc1OCc1ccc([N+](=O)[O-])cc1
[1]
  AC50: 0.281 µM (active)
Protein RecA
  EC50: 0.159 µM (active)

## CS(=O)(=O)Nc1ccc(C(=O)Nc2ccccc2C(=O)NCc2ccco2)cc1
[4]
  EC50: > 150 µM (not active)
Streptokinase A
  EC50: > 150 µM (not active)
Streptococcus
  EC50: > 150 µM (not active)

## COCc1nc2ccccc2n1Cc1ccc(Br)cc1
[3]
  IC50: 8.1 µM (not active)

## O=C1CC/[N+](=C\c2ccc(Cl)cc2)[N-]1
[1]
  AC50: 150 µM (active)
Protein RecA
  EC50: 3.64 µM (active)

## CCN=C(S)Nc1cc2oc3ccccc3c2cc1OC
[2]
  IC50: 99.9 µM (active)

## O=C(COC(=O)c1ccco1)Nc1cccc(S(=O)(=O)N2CCOCC2)c1
Paired box protein Pax-8
  AC50: 62.1 µM (active)

## C[C@@H]1CN([C@@H](C)CO)C(=O)c2cc(NC(=O)Nc3ccc4c(c3)OCO4)ccc2O[C@@H]1CN(C)C(=O)Nc1ccc(C(F)(F)F)cc1
Paired box protein Pax-8
  AC50: 11.1 µM (active)

## COC(=O)c1ccc(/C=N/NS(=O)(=O)c2cc(C)ccc2C)cc1
[3]
  IC50: 6.58 µM (not active)

## COc1ccccc1/N=C1\C(Cl)=C(O)OC1OC(=O)c1ccco1 (stereo not drawn)
[1]
  AC50: 12.5 µM (active)
Protein RecA
  EC50: 13.4 µM (active)
